Assay results published in US20150005306A1 (priority 2013, published 2015).
“Also recorded” adds a separate entry of the source.

Legend:
[1] = test system: Alzheimer's disease transgenic mouse; assay: Fear conditioning-contextual test; type: in vivo; details: 1 mg/kg of each drug, after the 13 weeks of Example 1
From the text: (§1) To observe the effects of the combination of EPPS and donepezil, the experimental animal subjected to the Y-maze behavior test for 13 weeks in Example 1 was subjected to a fear conditioning test for testing fearful memory of space and sound.
(§2) The fear conditioning test was divided into a fear conditioning-contextual test that tests fearful memory of space and fear conditioning-cued test that tests fearful memory of sound.
(§3) The test included a pair of sound stimulation (CS(conditioned stimulus), 30 seconds, 85 dB, and 30 kHz) and electric shock (US(unconditioned stimulus), 1 second, and 0.5 mA), which was repeated twice. Each was performed with a term of 90 seconds and the mouse was taken out from the conditioning box 90 seconds after the last electric shock (US). The following tests were performed after 24 hours.
Contextual test: the experimental animal was maintained in the conditioning box and freeze response were measured without providing sound stimulation and electric shock, results of which were used as a scale of conditioned fearful reaction. The freeze reaction was defined as a motionless state, except for breathing.

[2] = test system: Alzheimer's disease transgenic mouse; assay: Y-maze behavior test (spontaneous alternation); type: in vivo; details: B6C3-Tg(APPswe, PSEN1dE9) mouse, 1 mg/kg of each drug orally every day, Y-maze once every week for 13 weeks
Experimental: To test the effects of a combination of EPPS and donepezil, a Y-maze behavior test for evaluating learning memory of an Alzheimer's disease transgenic mouse was performed.
10 months old B6C3-Tg(APPswe, PSEN1dE9)85Dbo/Mmjax (The Jackson Laboratory, the U.S.A.) was used as the Alzheimer's disease transgenic mouse, as an experimental animal. The experimental animal was divided into three groups, namely, a donepezil administered group, an EPPS administered group, and a combination of donepezil and EPPS administered group were orally administered with respective drugs everyday in the amounts shown in Table 1 below and the Y-maze test was performed once every week for 13 weeks. As a control group, a transgenic mouse that was not administered with a drug was used as a negative control group and a normal mouse that was not administered with a drug was used as a positive control group.
The Y-maze instrument includes a maze made of a black acrylic board [branches: width 6 cm, length 40 cm, and height 12 cm] having a Y-shape in which all corners were blocked and each branch was disposed at a uniform angle of 120°. […] Frequencies and sequences of the experimental animal moving into each branch were measured to evaluate spontaneous alternation (%). […]

[3] = test system: β-amyloid fibrils or oligomers; details: as disclosed in a research paper; cited from earlier work
[4] = test system: Alzheimer's disease transgenic mouse; assay: Fear conditioning-cued test; type: in vivo; details: 1 mg/kg of each drug, after the 13 weeks of Example 1
From the text: as §1, §2, §3
Cued test: To change the context after 24 hours of the contextual test, the mouse was put into a box other than the box used for the contextual test and was provided with a sound stimulation identical to the contextual test (electric shock was not provided) to measure freeze reactions. The results were used as a scale for fear response conditioned to the cues.

In the case of `O=S(=O)(O)CCCN1CCN(CCO)CC1` [EPPS, N-(2-hydroxyethyl)piperazine-N′(3-propanesulfonic acid)], the “Average freeze response, contextual test” value [1] is given as 34.437, the “improvement in cognitive skills (normalized % alternation rate, FIG. 1)” value [2] is given as “gradual improvement in the cognitive skills compared with that of the donepezil administered group; also recorded: reached the same level of cognitive skills as the donepezil administered group at 10 weeks; also recorded: long-term improvement in cognitive skills but a slower improvement compared with donepezil and a lower improvement compared with the combination of EPPS and donepezil” and the “effect on accumulation of β-amyloid fibrils or oligomers” value [3] is given as “inhibits the accumulation of β-amyloid fibrils or oligomers and decomposes the accumulated β-amyloid fibrils or oligomers”. The “Average freeze response, cued test” value [4] was 55.1042.

With `COc1cc2c(cc1OC)C(=O)C(CC1CCN(Cc3ccccc3)CC1)C2` (stereo not shown) [donepezil, reference compound] the “Average freeze response, contextual test” value [1] was 16.602, the “improvement in cognitive skills (normalized % alternation rate, FIG. 1)” value [2] was “initially showed a rapid improvement in cognitive skills, but the improvement reached peak at 5 weeks and decreased at 7 weeks; also recorded: rapid but short-term improvement in cognitive skills” and the “Average freeze response, cued test” value [4] was 58.9167.
